Assay results published in patent US20110065663A1, “ANTI-CANCER COMBINATION THERAPY” (Katholieke Universiteit Leuven, K.U. Leuven R&D, priority 2008, published 2011).

Legend:
M. hyorhinis TP = test: TP activity in the medium of MCF-7/HYOR cell cultures (HPLC, conversion of nucleoside to free base); type: biochemical, Mycoplasma hyorhinis; details: 200 μM substrate, 37° C.
Method: (§1) The TP activity of M. hyorhinis and the conversion of dThd, FdUrd, 5′DFUR and TFT to thymine, 5FU, 5FU or TF-thymine respectively were measured by high-pressure liquid chromatography (HPLC) analysis. MCF-7 and MCF-7/HYOR cells were seeded at a density of 20,000 cells/cm^2 in DMEM with 10% FBS. Four days later, the medium was collected and cleared by centrifugation at 1,400 rpm. For some experiments, the medium of MCF-7/HYOR cells was filtered using a 0.1 μm micro filter (Acrodisc syringe filter, PALL Corporation, East Hills, N.Y.) to remove the mycoplasmas from the medium. 600 μl of the medium was incubated with 200 μM of substrate (dThd, 5′DFUR, TFT or FdUrd) at 37° C. in the presence or absence of 10 μM TPi. At different time points (i.e. 0, 15, 30, 60, 120 minutes and 16 hours), 100 μl aliquots were withdrawn, transferred to Eppendorf tubes and heated at 95° C. for 3 min. Next, the samples were rapidly cooled on ice, exposed for 20 min to 200 μl ice-cold methanol and cleared by centrifugation at 15,000 rpm for 15 minutes. As a positive control, an enzyme activity assay with E. coli TP (Sigma) was performed. For this reaction, 0.025 U of TP were incubated with 200 μM of substrate in TP-buffer (10 mM Tris-HCl, pH 7.6, 1 mM EDTA, 2 mM potassium phosphate and 150 mM NaCl) in a total volume of 600 μl. Aliquots of 100 μl were withdrawn from the reaction mixture at several time points and treated as described above. The nucleosides were separated from their nucleobases on a reversed-phase RP-8 column (Merck, Darmstadt, Germany) and quantified by HPLC analysis (Aliance 2690, Waters, Milford, Mass.). The separation was performed by a linear gradient from 100% buffer B (50 mM NaH2PO4 and 5 mM heptane sulfonic acid, pH 3.2), to 20% buffer B and 80% acetonitrile. […] UV-based detection of all nucleosides was performed at 267 nm.

[1] = Conversion of nucleosides in the medium of uninfected MCF-7 cells; type: biochemical, human; details: even after 24 hours of incubation; data not shown
Method: as §1, with “At different time points (i.e. 0, 15, 30, 60, 120 minutes and 16 hours), 100 μl aliquots were withdrawn, transferred to Eppendorf tubes and heated at 95° C. for 3 min.” left out

## O=c1[nH]c(=O)n([C@H]2C[C@H](O)[C@@H](CO)O2)cc1F [FdUrd, 5-fluoro-2′-deoxyuridine]
M. hyorhinis TP; 2 hours
  Percent conversion of nucleoside to the free pyrimidine base in MCF-7/HYOR medium: 43%
M. hyorhinis TP; 16 hours
  Percent conversion of nucleoside to the free pyrimidine base in MCF-7/HYOR medium: 77%
[1]
  Conversion in the medium of uninfected MCF-7 cells: no conversion

## O=c1[nH]c(=O)n([C@H]2C[C@H](O)[C@@H](CO)O2)cc1C(F)(F)F [TFT, 5-trifluorothymidine]
M. hyorhinis TP; 2 hours
  Percent conversion of nucleoside to the free pyrimidine base in MCF-7/HYOR medium: 8%
M. hyorhinis TP; 16 hours
  Percent conversion of nucleoside to the free pyrimidine base in MCF-7/HYOR medium: 55%
[1]
  Conversion in the medium of uninfected MCF-7 cells: no conversion
